Consider two molecules from patent publication US4091211A, “Cephalosporins” (Hoffmann-La Roche Inc., priority 1974, dated 1978).

Where a name gives a salt, the structure may show the parent alone.

Data set [1] concerns Staphylococcus aureus 887 (Penicillin-sensitive). Description: antimicrobial activity, CD50 in the mouse upon subcutaneous injection, Staphylococcus aureus 887. Type of data set: in vivo. An excerpt:
(§1) The results represent CD50 values in the mouse upon subcutaneous injection. In the table, compound A is (7R)-3- [[(1,4,5,6-tetrahydro-4-ethyl-5,6-dioxo-as-triazin-3-yl)-thio]methyl]-7-[2-(5-oxo-1,2,3-oxadiazolidin-3-yl)-acetamido]-3-cephem-4-carboxylic acid sodium salt and compound B is (7R)-3- [[(1,4,5,6-tetrahydro-4-ethyl-5,6-dioxo-as-triazin-3-yl)-thio]methyl]-7-[2(1-H-tetrazol-1-yl)-acetamido]-3-cephem-4-carboxylic acid sodium salt.

Data set [2] deals with Staphylococcus aureus Schoch (Penicillin-sensitive). Description: antimicrobial activity, CD50 in the mouse upon subcutaneous injection, Staphylococcus aureus Schoch. Type of data set: in vivo.
Text: as §1

Data set [3] deals with Escherichia coli 1346. Description: antimicrobial activity, CD50 in the mouse upon subcutaneous injection, Escherichia coli 1346. It is filed as in vivo.
Text: as §1

A short description of data set [4]: acute toxicity (LD50 i.v. in the mouse). The following applies: in vivo, iv.

Consider `CCn1c(SCC2=C(C(=O)O)N3C(=O)[C@@H](NC(=O)C[n+]4cc([O-])on4)[C@H]3SC2)n[nH]c(=O)c1=O` [A, sodium salt], for which the CD50 in data set [1] is 5.5 mg/kg; in data set [2], 0.25 mg/kg; in data set [3], 0.38 mg/kg. Further, the LD50 in data set [4] (i.v. in the mouse, acute toxicity) fell in the range of 2000 to 4000 mg/kg.

As to `CCn1c(SCC2=C(C(=O)O)N3C(=O)[C@@H](NC(=O)Cn4cnnn4)[C@H]3SC2)n[nH]c(=O)c1=O` [B, (7R)-3-[[(1,4,5,6-tetrahydro-4-ethyl-5,6-dioxo-as-triazin-3-yl)-thio]methyl]-7-[2(1-H-tetrazol-1-yl)-acetamido]-3-cephem-4-carboxylic acid sodium salt], the results for the CD50 in data set [1], in data set [2] and in data set [3] were 3.2 mg/kg, 0.6 mg/kg and 0.9 mg/kg, respectively. Besides, the LD50 in data set [4] (mouse) lay within 1000 to 2000 mg/kg.
